What was measured:
Thymidylate synthase = Thymidylate synthase (Homo sapiens, UniProt P04818); assay: Inhibition of human thymidylate synthase
Dihydrofolate reductase = molecular target: T1, Dihydrofolate reductase (Homo sapiens, UniProt P00374); assay: Inhibition of human DHFR
T1 sequence (P00374 whole entry): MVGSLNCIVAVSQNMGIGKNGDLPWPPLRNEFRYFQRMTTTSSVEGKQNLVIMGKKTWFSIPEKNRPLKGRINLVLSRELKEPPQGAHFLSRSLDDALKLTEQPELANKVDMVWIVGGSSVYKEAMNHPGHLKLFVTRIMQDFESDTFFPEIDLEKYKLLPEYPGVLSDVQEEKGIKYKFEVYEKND

Cryptosporidium hominis [1] = assay: Antiparasitic activity against compound pre-treated Cryptosporidium hominis Iowa sporozoites infected in human HCT8 cells assessed as reduction in parasite infection; assay type: functional, organism-based; conditions: HCT-8
[2] = Toxicity in Cryptosporidium hominis Iowa sporozoites infected human HCT8 cells assessed as effect on cell viability by microscopy; assay type: cell-based; conditions: hct-8
[3] = Toxicity in Cryptosporidium hominis Iowa sporozoites infected human HCT8 cells assessed as effect on RNA levels; assay type: cell-based; conditions: hct-8
[4] = Toxicity in Cryptosporidium hominis Iowa sporozoites infected human HCT8 cells assessed as effect on cell morphology by microscopy; assay type: cell-based; conditions: hct-8
Cryptosporidium hominis [5] = assay: Antiparasitic activity against Cryptosporidium hominis Iowa intracellular forms infected in human HCT8 cells assessed as reduction in parasite infection dosed 2 hrs after parasite infection; assay type: functional, organism-based; conditions: HCT-8, 2 h

Chain of Thymidylate synthase (P04818 whole entry): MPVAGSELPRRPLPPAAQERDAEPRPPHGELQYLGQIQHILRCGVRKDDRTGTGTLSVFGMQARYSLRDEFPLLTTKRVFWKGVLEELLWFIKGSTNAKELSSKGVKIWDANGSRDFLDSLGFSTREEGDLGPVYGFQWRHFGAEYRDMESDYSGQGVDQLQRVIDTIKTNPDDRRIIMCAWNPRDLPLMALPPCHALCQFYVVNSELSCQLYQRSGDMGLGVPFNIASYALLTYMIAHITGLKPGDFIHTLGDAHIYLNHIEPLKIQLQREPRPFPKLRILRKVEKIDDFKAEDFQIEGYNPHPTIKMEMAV

Molecule Nc1nc2[nH]cc(Cc3ccc(C(=O)N[C@@H](CCC(=O)O)C(=O)O)cc3)c2c(=O)[nH]1 has an IC50 (Thymidylate synthase) of 1800 nM, an IC50 (Dihydrofolate reductase) of 640 nM and an EC50 (Cryptosporidium hominis [1]) of 1000 nM. The Activity [2] was “Non-toxic”, the Activity [3] was “Non-toxic” and the Activity [4] was “Non-toxic”. For the same molecule, the EC50 (Cryptosporidium hominis [5]) was 1000 nM.

From ChEMBL document CHEMBL3351290, “Structural studies provide clues for analog design of specific inhibitors of Cryptosporidium hominis thymidylate synthase-dihydrofolate reductase” (Bioorg Med Chem Lett, 2014)
